# Results as given in PubChem BioAssay (NCI).
#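 Protocol summary: plate cells (96-well), add compound at 5 concentrations, incubate 48 h, interpolate endpoints linearly. At the GI50, growth is halved. TGI: concentration producing complete growth inhibition.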
# Assays:
# Assay in all cases: NCI-60 cell line screen, 48 h
# [1] = test system: A498 renal
# [2] = test system: DU-145 prostate
# [3] = test system: HCT-15 colon
# [4] = test system: HS 578T breast
# [5] = test system: K-562 leukemia
# [6] = test system: NCI-H226 lung
# [7] = test system: OVCAR-3 ovarian
# [8] = test system: SNB-19 CNS
# [9] = test system: U251 CNS
# [10] = test system: UO-31 renal
Structure (SMILES),GI50 [1] [µM],TGI [1] [µM],GI50 [2] [µM],TGI [2] [µM],GI50 [3] [µM],TGI [3] [µM],GI50 [4] [µM],TGI [4] [µM],GI50 [5] [µM],TGI [5] [µM],GI50 [6] [µM],TGI [6] [µM],GI50 [7] [µM],TGI [7] [µM],GI50 [8] [µM],TGI [8] [µM],GI50 [9] [µM],TGI [9] [µM],GI50 [10] [µM],TGI [10] [µM]
CCC(=O)Sc1ccccc1C(=O)Nc1ccc(Cl)cc1,9.19,38.5,22.1,74.3,7.79,> 100,15.9,66.4,3.83,> 100,10.4,54.8,6.34,26.1,16.6,68.8,5.73,32.3,6.53,> 100
COC1=CC(c2ccc[nH]2)=N/C1=C\c1[nH]c(C)c(C(=O)CCC(=O)Oc2ccc3c(c2)CCC2C3CC[C@]3(C)C(=O)CC[C@@H]23)c1C (stereo partly drawn),7.94,57.4,1.58,> 100,2.52,> 61.8,14.2,> 100,4.22,> 100,10.9,> 58.6,17.5,> 100,17.7,> 100,3.31,> 86.7,3.95,30
COc1ccc(/C=C2/CN(C(=O)c3ccccc3F)C/C(=C\c3ccc(OC)cc3)C2=O)cc1,13.5,27.1,7.47,23.9,2.05,6.62,2.54,8.31,3.49,> 100,29.5,> 100,2.3,4.95,6.21,20.7,2.18,5.14,1.9,6.69
COCCNCC(O)Cn1c2ccc(Cl)cc2c2cc(Cl)ccc21 (stereo not drawn),1.73,5.32,2.12,4.05,2.06,5,1.99,5.51,2.19,4.64,2.25,5.92,1.95,3.66,3.48,16.6,1.94,3.93,1.75,4.17
COc1ccc2c(c1)C(=O)c1c-2c(NCCCN(C)C)nc2ccccc12,11.3,23.8,6.67,19.5,1.42,3.2,3.7,16,3.69,14.7,11.6,24,15.3,31.7,7.44,21.2,1.98,4.42,4.91,18.4
Cc1c(Cl)ccc2c1NC(=O)C2(O)CC(=O)c1ccc(Cl)cc1Cl (stereo not drawn),,> 50,,> 50,,> 50,,48.9,,> 50,,> 50,,> 50,,> 50,,> 50,,> 50
O=C(Cn1ccnc1[N+](=O)[O-])N(CCO)CCO,> 250,> 1250,,> 250,> 1250,> 1250,,> 250,> 1250,> 1250,> 1250,> 1250,> 312,> 828,> 1250,> 1250,> 1250,> 1250,> 1250,> 1250
COc1cc(OC)c(-c2cc(=O)c3c(OC)c(OC)c(OC)c(OC)c3o2)cc1OC,,> 100,,> 100,,> 100,,> 100,,> 100,,> 100,,> 100,,> 100,,> 100,,> 100
C[C@@H]1O[C@@H](O[C@H]2C[C@@H](O)[C@]3(CO)C4C(CC[C@]3(O)C2)[C@@]2(O)CC[C@H](C3=CC(=O)OC3)[C@@]2(C)C[C@H]4O)[C@H](O)[C@H](O)[C@H]1O (stereo partly drawn),0.0387,0.262,0.0104,0.02,0.0372,0.114,0.0182,4.32,0.0323,0.162,0.0741,0.154,0.0168,0.0487,0.0605,0.125,0.025,0.0839,0.0165,0.0618
CN(C)c1c(Cl)c(=O)oc2c1ccc1nc(-c3ccccc3)sc12,,> 100,,> 100,,> 100,,> 100,,> 100,,> 100,,> 100,,> 100,,> 100,,> 100
O=C1C(=O)c2ccc(Br)cc2-c2cc(Br)ccc21,> 28.1,> 100,7.29,> 100,1.28,> 35,8.27,> 78.9,0.799,> 29.8,> 60.1,> 100,0.619,1.36,11,> 100,1.42,9.04,5.61,> 100
Cc1cc(N(CCCl)CCCl)ccc1C=Nc1cccnc1,0.237,0.833,4.62,42.9,27.5,> 100,37.7,> 100,34.7,> 100,0.306,1.79,5.33,31.7,59.9,> 100,18.5,> 100,12.4,> 86.7
O=S(=O)(Nc1ccc(-c2nc(-c3cccc(OCCN4CCOCC4)c3)c(-c3ccnc(Br)c3)[nH]2)cc1)c1ccccc1,1.53,6.94,5.64,> 100,1.74,6.79,1.47,4.37,2.32,> 100,3.1,40.6,4.71,> 100,6.07,> 100,2.92,46,2.92,> 100
